Laboratory results taken from article PMC11239005, “Preclinical studies of RA475, a guanidine-substituted spirocyclic candidate RPN13/ADRM1 inhibitor for treatment of ovarian cancer” (PLOS ONE, 2024).
Read-outs that look alike come from different tables or passages of the source.

How the values were obtained:
PEA1 cells = experiment: MTT cytotoxicity assay, PEA1; assay type: cell-based, human; conditions: for IC50: Homo sapiens, PEA1, 72 h
Method: (§1) All cell lines were obtained from the American Type Culture Collection (ATCC) and cultured in the specified medium supplemented with 10% fetal bovine serum, 100 IU/mL penicillin, and 100 μg/mL streptomycin at 37°C in a humidified 5% CO2/95% air incubator. Synthesis of new compounds is described in S1 File, and >95% purity of RA475, Up284 and its analogs were confirmed by NMR and MS. To assess drug cytotoxicity, cells were seeded at 2,500 cells/well (10,000 cells/well for MM lines) in 100 μL medium in 96-well plate as triplicates and after 24 h treated with compounds for a further 72 h. To assess cytotoxicity, the cells were incubated for 2 h at 37°C according to the manufacturer’s protocol with the Thiazolyl Blue Tetrazolium Bromide (20 μL/well of 5 mg/mL stock solution in water) (Sigma, M5655) and A570 measured using a Benchmark Plus microplate spectrophotometer (BIO-RAD). IC50 was estimated using Graphpad Prism 7 software.
Modifications of Up284 were sought to improve its drug-like properties without significant compromise of its activity in vivo, and several new compounds were synthesized (S1 File). Based on our prior studies of its pharmacophore, the central ring nitrogen was the most logical for addition of charged moieties, including RA475 and RA484. We also examined a change to either 3,4 spiro rings (RA477, RA479), or addition of 3-Fluoro substitutions (RA482) (S1 File). Our focus is developing iRPN13 to treat ovarian cancer resistant to standard of care drug regimens.
A wash-out experiment was performed to assess reversibility of the toxicity. PEA1 cells were treated with RA475 for 1 h before the medium was replaced with fresh culture medium, and the cells were then allowed to grow for another 71 hours (PEA1-WO). In parallel, PEA1 cells were incubated with RA475 continuously for 72 h. […] Possible reasons include slow uptake of RA475, reversible binding and neutralization by antioxidants in the medium.
To study the effect of RA475 in combination with approved therapeutics (DNA damaging agents or radiation) an MTT assay was performed using various concentrations of both drugs. Briefly PEA1 and OVCAR3 cells were each treated with drug combination (RA475 plus cisplatin) for 72 h in a checker board analysis and cell viability was measured using MTT assay. The data were analyzed and plotted using the Synergy Finder web application.

ID8VegF = experiment: MTT cytotoxicity assay, ID8VegF; assay type: cell-based; conditions: 72 h
Method: as §1

HCC1806 = experiment: MTT cytotoxicity assay, HCC1806; assay type: cell-based; conditions: Homo sapiens, HCC1806, 72 h
Method: as §1

HCC1395 = experiment: MTT cytotoxicity assay, HCC1395; assay type: cell-based; conditions: Homo sapiens, HCC1395, 72 h
Method: as §1

TC1-Ova = experiment: MTT cytotoxicity assay, TC1-Ova; assay type: cell-based; conditions: 72 h
Method: as §1

B6-Ova = experiment: MTT cytotoxicity assay, B6-Ova; assay type: cell-based; conditions: 72 h
Method: as §1

ES2 = experiment: MTT cytotoxicity assay, ES2; assay type: cell-based; conditions: Homo sapiens, ES-2, ES2, 72 h
Method: as §1

HepG2 = experiment: MTT cytotoxicity assay, HepG2; assay type: cell-based; conditions: Homo sapiens, HepG2, 72 h
Method: as §1

[1] = tested on: high molecular weight polyubiquitinated proteins in OVCAR3 cells; experiment: Anti-ubiquitin immunoblot, OVCAR3; assay type: cell-based, human; conditions: Up284 0.5 μM, bortezomib 0.25 μM, ixazomib 0.25 μM, RA475 0.5 or 1 μM
Description: Cell lysate prepared in MPER (Pierce) from each sample was normalized by total protein concentration using the bicinchoninic acid assay and bovine serum albumin standards. Normalized samples were subjected to SDS-PAGE, transferred to PVDF membranes and analyzed by Western blot using antibodies specific to ubiquitin (P4D1, sc-8017, Santa Cruz), PARP (#9542, […]), actin (#66009, Protein Tech Group), Tubulin(#66031, Protein Tech Group), ADRM1/RPN13 (D9Z1U, #12019, Cell Signaling), USP14 (Cell Signal, # 8159), Annexin V (#559763, BD Pharmingen), and for secondary antibodies we utilized either horseradish peroxidase (HRP)-linked anti-mouse IgG or anti-rabbit IgG (GE Healthcare UK Ltd), HRP-linked streptavidin (N100, Thermo Fisher) at the recommended dilution (1:5000).
Accumulation of high molecular weight polyubiquitinated proteins (polyUb) is a classical phenomenon of proteasome function inhibition due to the stabilization of its substrate.
Fig 3 Impact of RA475 on proteasome function. […] Actin was used as loading control. […] C) 4T1 and HCC1806 cells stably expressing 4UbFL were treated with compounds at indicated doses for 4 h and imaged by IVIS200 after the addition of luciferin substrate (50 μL, 7mg/mL in PBS). D) Sub-confluent cultures of ES2 cells stably expressing 4UbFL were seeded at 10,000 cells/well in 96-well microtiter plates. At 18 h post transfection, cells were treated with compounds or vehicle (DMSO) at the doses indicated. After a 4 h incubation, the cells were lysed and the luciferase activity in each cell lysate was determined with a luciferase assay kit (Promega) according to the manufacturer’s instructions. Bioluminescence was measured by using a luminometer (Glomax Multidetection system, Promega) E) A patch was shaved of hair on one leg of CD-1 mice, and 10 μg 4UbFL plasmid in 20 μL of PBS was injected into the quadriceps femoralis muscle followed immediately by injection of the 2 Needle Array to 5 mm depth encompassing the injection site and square wave electroporation (ElectroSquarePorator 833, BTX-2 Needle array 5mm gap, Harvard apparatus) delivered as eight pulses at 106V for 20 ms with 200 ms intervals. One day post electroporation, mice were anesthetized with isoflurane, injected IP with luciferin (0.3 mg in 100 μL water) and optical imaging was performed to determine basal level luciferase expression. Images were acquired for 10 min with a Xenogen IVIS 200 (Caliper, Hopkinton, MA). Equally sized areas were analyzed using Living Image 2.20 software. Mice were imaged weekly during treatment. […]

hERG potassium channel = hERG potassium channel (Homo sapiens, UniProt Q12809); experiment: hERG Thallium Flux FLIPR-Based Assay
Method: Supplementary file pone.0305710.s008.tif: S8 Fig hERG inhibition in vitro. […] Concentration range of 0.023–50 μM (8 points, 3-fold serial dilutions) B) Dose-response curve for RA475. Concentration range of 0.045–100 μM (8 points, 3-fold serial dilutions). C) Dose-response curve for Up284. Concentration range of 0.045–100 μM (8 points, 3-fold serial dilutions). (TIF)

Chain of hERG potassium channel (Q12809 whole entry): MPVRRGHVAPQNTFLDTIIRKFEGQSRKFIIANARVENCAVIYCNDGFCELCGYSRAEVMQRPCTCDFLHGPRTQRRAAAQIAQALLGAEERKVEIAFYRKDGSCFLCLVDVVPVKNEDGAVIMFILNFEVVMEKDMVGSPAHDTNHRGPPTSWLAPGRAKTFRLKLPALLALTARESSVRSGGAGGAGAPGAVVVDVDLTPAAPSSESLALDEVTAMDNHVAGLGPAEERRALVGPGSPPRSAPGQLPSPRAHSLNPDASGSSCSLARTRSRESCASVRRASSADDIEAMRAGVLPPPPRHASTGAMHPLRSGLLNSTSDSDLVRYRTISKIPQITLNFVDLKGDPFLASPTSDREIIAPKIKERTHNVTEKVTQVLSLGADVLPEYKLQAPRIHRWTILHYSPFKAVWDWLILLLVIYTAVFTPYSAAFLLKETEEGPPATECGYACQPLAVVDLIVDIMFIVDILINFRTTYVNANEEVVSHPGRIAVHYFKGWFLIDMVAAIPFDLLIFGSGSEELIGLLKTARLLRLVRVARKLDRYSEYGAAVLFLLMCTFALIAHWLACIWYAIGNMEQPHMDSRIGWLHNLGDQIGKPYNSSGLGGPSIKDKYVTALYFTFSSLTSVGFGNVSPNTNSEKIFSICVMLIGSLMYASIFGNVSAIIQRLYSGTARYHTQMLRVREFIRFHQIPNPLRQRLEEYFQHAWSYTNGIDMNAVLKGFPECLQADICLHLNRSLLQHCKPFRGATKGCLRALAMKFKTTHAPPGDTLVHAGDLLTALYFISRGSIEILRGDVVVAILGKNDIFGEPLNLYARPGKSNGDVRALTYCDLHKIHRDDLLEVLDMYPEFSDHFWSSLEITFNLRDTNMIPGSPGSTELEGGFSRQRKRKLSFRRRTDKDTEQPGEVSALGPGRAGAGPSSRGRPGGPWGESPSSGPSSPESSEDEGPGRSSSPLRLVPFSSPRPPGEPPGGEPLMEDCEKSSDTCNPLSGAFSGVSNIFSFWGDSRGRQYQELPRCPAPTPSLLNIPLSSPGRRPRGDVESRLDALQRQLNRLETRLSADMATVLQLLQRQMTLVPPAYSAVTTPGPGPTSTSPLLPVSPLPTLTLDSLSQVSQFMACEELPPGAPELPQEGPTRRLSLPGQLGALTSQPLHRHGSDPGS

Structure (SMILES) | IC50 (PEA1 cells) | cytotoxic effect after wash-out (PEA1 cells; PEA1, RA475 1 h then fresh medium 71 h vs continuous 72 h) | synergy with cisplatin for cytotoxicity (PEA1 cells; PEA1, checker board, 72 h, Synergy Finder) | IC50 (ID8VegF) | IC50 (HCC1806) | IC50 (HCC1395) | IC50 (TC1-Ova) | IC50 (B6-Ova) | IC50 (ES2) | IC50 (HepG2) | forms of polyUb induced [1] | IC50 (hERG potassium channel) | IC50 (HCC1395; MTT, read-out: IC50)
Cl.Cl.N#Cc1ccc(/C=C2/C(=O)/C(=C/c3ccc(C#N)cc3)C23CCN(C(=N)N)CC3)cc1 [RA475, 1,3-bis((E)-4-cyanobenzylidene)-2-oxo-7-azaspiro[3.5]nonane-7-carboximidamide dihydrochloride] | 406 nM | reduced its cytotoxic effect | mild synergy | 1820 nM | 113 nM | 464 nM | 150 nM | 70 nM | 160 nM | 241 nM | induced forms of polyUb that did not run into the gel | 85800 nM | –
N#Cc1ccc(/C=C2/C(=O)/C(=C/c3ccc(C#N)cc3)C23CCNCC3)cc1 [Up284, reference compound] | 219 nM | – | – | 200 nM | 140 nM | – | 90 nM | 50 nM | 125 nM | 90 nM | induced forms of polyUb that did not run into the gel | 4300 nM | 120 nM
